Values quoted from earlier work, collected in US20240209370A1, “METHODS OF MODULATING ALK” (SOCIETE DES PRODUITS NESTLE S.A., priority 2017, published 2024).

Biological target: ALK (Homo sapiens, UniProt Q9UM73)
Conditions: effect on ALK activity or expression as listed from ctdbase, Medline or cited patents

Sequence of ALK (Q9UM73 19-1620): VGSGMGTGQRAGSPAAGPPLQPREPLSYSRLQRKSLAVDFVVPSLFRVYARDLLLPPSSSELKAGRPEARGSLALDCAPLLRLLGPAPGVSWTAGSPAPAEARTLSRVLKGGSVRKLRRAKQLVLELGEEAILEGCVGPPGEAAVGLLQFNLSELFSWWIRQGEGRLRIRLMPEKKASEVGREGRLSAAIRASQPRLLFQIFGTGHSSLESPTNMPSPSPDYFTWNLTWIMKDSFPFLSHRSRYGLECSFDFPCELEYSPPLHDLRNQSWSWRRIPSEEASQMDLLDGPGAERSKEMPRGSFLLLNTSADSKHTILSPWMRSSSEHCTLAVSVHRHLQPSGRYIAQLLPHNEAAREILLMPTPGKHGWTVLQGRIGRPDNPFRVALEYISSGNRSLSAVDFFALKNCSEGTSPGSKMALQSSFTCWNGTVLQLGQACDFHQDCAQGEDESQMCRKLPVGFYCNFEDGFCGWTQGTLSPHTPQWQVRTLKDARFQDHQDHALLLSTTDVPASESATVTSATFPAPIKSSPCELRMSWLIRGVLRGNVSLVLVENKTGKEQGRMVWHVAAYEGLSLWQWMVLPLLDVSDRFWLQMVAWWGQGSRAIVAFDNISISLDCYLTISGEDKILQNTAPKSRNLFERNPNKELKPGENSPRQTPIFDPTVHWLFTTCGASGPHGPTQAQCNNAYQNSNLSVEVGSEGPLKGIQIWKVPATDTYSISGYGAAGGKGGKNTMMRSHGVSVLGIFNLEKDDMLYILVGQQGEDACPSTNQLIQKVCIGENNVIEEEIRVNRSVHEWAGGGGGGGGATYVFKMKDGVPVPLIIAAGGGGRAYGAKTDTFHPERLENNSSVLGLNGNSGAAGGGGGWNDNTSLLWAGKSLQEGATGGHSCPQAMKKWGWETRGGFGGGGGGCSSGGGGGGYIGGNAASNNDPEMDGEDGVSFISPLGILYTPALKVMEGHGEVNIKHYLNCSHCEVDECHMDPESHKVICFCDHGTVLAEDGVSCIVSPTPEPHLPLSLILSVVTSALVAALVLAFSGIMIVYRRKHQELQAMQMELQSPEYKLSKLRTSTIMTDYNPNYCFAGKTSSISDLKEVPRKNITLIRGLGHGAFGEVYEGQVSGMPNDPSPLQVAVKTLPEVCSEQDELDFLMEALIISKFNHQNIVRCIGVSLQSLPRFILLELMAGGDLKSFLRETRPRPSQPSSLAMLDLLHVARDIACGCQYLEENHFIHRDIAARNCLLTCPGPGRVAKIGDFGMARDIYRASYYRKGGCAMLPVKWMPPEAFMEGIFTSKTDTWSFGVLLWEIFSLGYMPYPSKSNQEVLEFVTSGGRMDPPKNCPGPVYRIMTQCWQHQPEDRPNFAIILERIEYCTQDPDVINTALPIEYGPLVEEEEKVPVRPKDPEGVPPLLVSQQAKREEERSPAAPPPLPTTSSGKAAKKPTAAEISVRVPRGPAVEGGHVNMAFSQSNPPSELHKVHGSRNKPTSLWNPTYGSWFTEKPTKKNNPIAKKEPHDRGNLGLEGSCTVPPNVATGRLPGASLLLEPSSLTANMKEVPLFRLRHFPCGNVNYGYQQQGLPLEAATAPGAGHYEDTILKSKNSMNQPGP

Compound	Interaction Actions
CC(=O)N[C@@H](CS)C(=O)O [Acetylcysteine]	affects activity
C[C@H](Cc1ccc(O)c(O)c1)[C@@H](C)Cc1ccc(O)c(O)c1 [Masoprocol]	decreases activity
CC1=C(/C=C/C(C)=C/C=C/C(C)=C/C(=O)O)C(C)(C)CCC1 [Tretinoin]	decreases expression
Cc1cc(Nc2ncc(Cl)c(Nc3ccccc3S(=O)(=O)C(C)C)n2)c(OC(C)C)cc1C1CCNCC1 [ceritinib]	inhibit
Cc1cc(O)c2c(c1)C(=O)c1cc(O)cc(O)c1C2=O [emodin]	inhibit
CO[C@H]1C[C@@H]2CC[C@@H](C)[C@@](O)(O2)C(=O)C(=O)N2CCCC[C@H]2C(=O)O[C@H]([C@H](C)C[C@@H]2CC[C@@H](OCCO)[C@H](OC)C2)CC(=O)[C@H](C)/C=C(\C)[C@@H](O)[C@@H](OC)C(=O)[C@H](C)C[C@H](C)/C=C/C=C/C=C/1C [everolimus]	inhibit
COc1cc2c(Oc3ccc(NC(=O)C4(C(=O)Nc5ccc(F)cc5)CC4)cc3F)ccnc2cc1OCCCN1CCOCC1 [foretinib]	inhibit
CO[C@H]1[C@@H](OC)C[C@H](C)[C@@H](OC)C2=CC(=O)C=C(NC(=O)/C(C)=C/C=C\[C@H](OC)[C@@H](OC(N)=O)/C(C)=C/[C@@H]1C)C2=O [herbimycin]	inhibit
heparin	terminate

Further lines, results first:

Interaction Actions	Compound
suppress	C[C@]12CCC(=O)C=C1CC[C@@H]1[C@@H]2[C@@H](O)C[C@@]2(C)[C@H]1CC[C@]2(O)C(=O)CO [hydrocortisone]
inhibit	CS(=O)(=O)CCNCc1ccc(-c2ccc3ncnc(Nc4ccc(OCc5cccc(F)c5)c(Cl)c4)c3c2)o1 [lapatinib]
inhibit	c1cncnc1 [pyrimidine]
inhibit	O=S(=O)(O)OC[C@H]1O[C@@](COS(=O)(=O)O)(O[C@H]2O[C@H](COS(=O)(=O)O)[C@@H](OS(=O)(=O)O)[C@H](OS(=O)(=O)O)[C@H]2OS(=O)(=O)O)[C@@H](OS(=O)(=O)O)[C@@H]1OS(=O)(=O)O [sucrose octasulfate]
inhibit	COc1cc2nccc(Oc3ccc(NC(=O)Nc4cc(C)on4)c(Cl)c3)c2cc1OC [tivozanib]
inhibit	C[C@H]1c2cccc(O)c2C(O)=C2C(=O)[C@]3(O)C(O)=C(C(N)=O)C(=O)[C@@H](N(C)C)[C@@H]3[C@@H](O)[C@@H]21 [vibramycin]
